Key:
[1] = In vivo absorption profile
[2] = plasma; recorded value; cited from earlier work
[3] = Physical properties of 5-ISMN (static electricity, flowability, sublimation, solubility); format: physicochemical; conditions: well-defined particle size fraction of 5-ISMN powder
[4] = Kinetics of release of the active principle in vitro as a function of pH; format: physicochemical; conditions: tablet according to the invention
Description: This study was carried out at pH values of 1.5, 4.25 and 7.2 and variable values.

[5] = cited from earlier work
[6] = Kinetics of release in vitro (rotating paddle dissolution); format: physicochemical; conditions: composition according to the invention, 100 rpm/900 ml of water
Description: The study of the changes in the percentage of 5-ISMN dissolved was performed as a function of time. This test was carried out using a rotating paddle apparatus (100 rpm/900 ml of water).

[7] = Particle size by air-jet sieve (ALPIN JET SIEVE); format: physicochemical; conditions: for particle size fraction 100 μm to 250 μm: desired profile 20 to 50%; for particle size fraction 80 μm to 100 μm: desired profile 40 to 60%; for particle size fraction larger than 500 μm: desired profile ≤ 0.5%; for particle size fraction 250 μm to 500 μm: desired profile ≤ 5%
Text: The air-Jet sieve method used according to the invention to define the particle size of the 5-ISMN is a technique widely used by those skilled in the art on account of its great sensitivity and reliability, and is consequently very familiar to them. The operating conditions employed in the context of the invention will be clarified in greater detail below.
Characterization of the particle size of the 5-ISMN used according to the invention by the air-jet sieve, type ALPIN JET SIEVE, method
350 g (sic) partial air vacuum,
time 4 min from 80 to 100 μm, then 3 mm (sic) from 250 to 500 μm.
Under these conditions, three batches of 5-ISMN, A, B and C, were tested.

SMILES | constant mean flux of in vivo absorption ([1]; calculated from mean curve of percentages of 5-ISMN absorbed) | absorption profile ([1]; mean curve for the percentages of 5-ISMN absorbed) | minimal effective concentration (Ceff) [2] | electrostatic phenomena [3] | flowability and compressibility [3] | tendency to sublime [3] | kinetic profiles of release at constant pH ([4]; pH 1.5, 4.25 and 7.2) | dissolution profile obtained at variable pH ([4]; variable pH) | sublimation ([5]; 60° C., 75% relative humidity) | flowability ([5]; static electricity phenomenon, dry mixing) | solubility in water and buffer solutions ([5]; water and buffer solutions) | % dissolved at 0.25 hour ([6]; 0.25 hour) | % dissolved at 1 hour ([6]; 1 hour) | % dissolved at 4 hours ([6]; 4 hours) | % dissolved at 8 hours ([6]; 8 hours) | particle size fraction 100 μm to 250 μm [7] | particle size fraction 80 μm to 100 μm [7] | particle size fraction larger than 500 μm [7] | particle size fraction 250 μm to 500 μm [7]
O=[N+]([O-])O[C@@H]1CO[C@H]2[C@@H]1OC[C@@H]2O [5-ISMN, isosorbide 5-mononitrate] | ~13.37 % h^-1 | zero order entry up to approximately the fifth hour following administration | 100 ng/mL | low level of electrostatic phenomena | qualities of flowability and compressibility | far less marked tendency to sublime | do not differ significantly from one another | pH-independent mode of release | sublimation phenomenon | virtually zero flowability | very high solubility | 5% to 20% | 20% to 40% | 60% to 80% | ≥ 80% |  |  |  | 
O=[N+]([O-])O[C@@H]1CO[C@H]2[C@@H]1OC[C@@H]2O [A, isosorbide 5-mononitrate] |  |  |  |  |  |  |  |  |  |  |  |  |  |  |  | 26% | 47.5% | 0.0% | 0.0%
O=[N+]([O-])O[C@@H]1CO[C@H]2[C@@H]1OC[C@@H]2O [B, isosorbide 5-mononitrate] |  |  |  |  |  |  |  |  |  |  |  |  |  |  |  | 34.4% | 48.2% | 0.0% | 0.9%
O=[N+]([O-])O[C@@H]1CO[C@H]2[C@@H]1OC[C@@H]2O [C, isosorbide 5-mononitrate] |  |  |  |  |  |  |  |  |  |  |  |  |  |  |  | 34.85% | 49.2% | 0.0% | 0.0%
